According to patent US11045473B2, “Compositions and methods for therapy of prostate cancer using drug combinations to target polyamine biosynthesis and related pathways” (Health Research, Inc., priority 2015, dated 2021):

Assays:
PC3 = test: Proliferation / IC50 by trypan blue cell counts, PC3; assay type: cell-based, human; details: for IC50: Homo sapiens; for effect on cell growth: 8 and 12 days
Method: A transition state analog inhibitor of MTAP, Methylthio-DaDMe-Immucillin-A (MTDIA) was previously described and shown to be effective following a 6 or 12 day treatment at ˜10 and 100 nM MTDIA when 20 uM MTA was added to the media in both lung adenocarcinoma cell lines and head and neck squamous carcinoma cell lines, respectively [Basu I, et al. J Biol Chem. 2007; 282:21477-21486; Basu I, et al. J Biol Chem. 2011; 286:4902-491]. 32]. We synthesized MTDIA and the analytical data on the synthesized compound are shown in FIGS. 8A and 8B with the scheme used for synthesis shown in FIG. 6. […] In all three cell lines, the proliferation curves after 12 days of treatment show an IC50 of MTDIA>1 mM in the absence of MTA (FIG. 5B), but in the 10-100 nM range with the addition of 10 or 20 μM MTA. […] Nanomolar range IC50 values are highlighted.
IC50—The MTAP inhibitor (3R,4S)-1-[(9-Deaza-adenin-9-yl)methyl]-3-hydroxy-4-(methylthiomethyl)-pyrrolidine, or MT-DADMe-Immucillin-A (MTDIA) was synthesized following the synthesis scheme shown in FIG. 6 and based on a known approach. Cells were seeded at 125,000 cells/well (PC-3, DU145, LNCaP) in triplicate in 2 mLs of RPMI medium supplemented with 10% fetal bovine serum, and 1% penicillin streptomycin. After 24 hours the MTDIA and/or MTA was added at the indicated concentrations. Both medium and drug were refreshed every 48 hours. Every 96 hours the cells were trypsinized, ˜2% of cells were removed and counted by trypan blue exclusion and the rest were replated into a larger vessel.

LNG53 cells = test: Antiproliferative activity of MTDIA in LNCaP cells overexpressing SAT1 in Tet-off system; assay type: cell-based, human; details: (-) Tet conditions, Tet removed 24 hours prior to 96 hr MTDIA
Method: Tet was removed 24 hours prior to 96 hr treatment with MTDIA. […] Cells were pre-treated with BENSpm for 24 hours followed by 96 hr treatment with MTDIA.
We next analyzed whether the metabolic stress in CaP cells caused by high biosynthetic flux to maintain polyamine pools can be enhanced by increasing the activity of SAT1. We tested whether this could cause increased secretion of acetylated polyamines, putting intracellular pools in deficit, which should necessitate more biosynthesis, and should therefore potentiate any benefit of inhibiting the MSP. To conduct this analysis we used LNCaP cells that stably overexpress SAT1 in a Tet-off system (LNG53 cells, described in Kee, K., et al. J Biol Chem 279, 27050-27058 (2004)).

spermine synthase = test: Western blot of spermine synthase in FaDu; assay type: cell-based, human; details: treatment with MTDIA
Method: (§1) FIG. 9. (A) Proliferation curves for LNCaP, DU145 and PC3 treated with MTDIA in the absence or presence of 10 or 20 uM MTA, for 4 and (B) 8 days. Results of biological triplicates are shown with absolute IC50s indicated for each condition. (C) Western blot analysis of FaDu, LNCaP, and DU145 cells after indicated treatments of MTA (0, 10, or 20 uM) or the respective 4 day IC25 and IC50 dose of MTDIA for each cell line plus or minus MTA immunoblotted with antibodies against MTAP, SMS, and SRM, with B-actin as a loading control. Western blot images are representative of biological triplicates. Band intensity values normalized to B-actin relative to control conditions are indicated below the respective band.
Western Blotting—Whole cell extracts were prepared in RIPA buffer (150 mM NaCl, 1.0% NP-40, 0.5% deoxycholate, 0.1% SDS, 50 mM Tris-HCl pH 8.0, 5 mM EDTA and 0.5 mM PMSF) supplemented with 1× proteinase inhibitor. Protein concentrations were determined by Bradford Assay (Thermo Scientific, Cat #1856209). Samples were resolved on polyacrylamide gels and transferred onto PVDF membranes (Biorad, Cat #162-0177). Blots were incubated with primary antibodies overnight at 4° and with secondaries for 1.5 hours at room temperature. Signals were visualized using Pierce ECL western blotting substrate (Thermo Scientific, Cat #32209) and exposed to film. […]

FaDu cells = test: IC50 of MTDIA for FaDu cells; assay type: cell-based; details: Homo sapiens, 144 h, 6 day treatment, 20 uM MTA
MTAP = test: Western blot of MTAP protein expression in LNCaP; assay type: cell-based, human; details: 4 day IC25 and IC50 of MTDIA, presence or absence of MTA
Method: as §1, with “Results of biological triplicates are shown with absolute IC50s indicated for each condition.” left out, “triplicates.” for “triplicates. Band intensity values normalized to B-actin relative to control conditions are indicated below the respective band.”
Western Blotting—Whole cell extracts were prepared in RIPA buffer (150 mM NaCl, 1.0% NP-40, 0.5% deoxycholate, 0.1% SDS, 50 mM Tris-HCl pH 8.0, 5 mM EDTA and 0.5 mM PMSF) supplemented with 1× proteinase inhibitor. Protein concentrations were determined by Bradford Assay (Thermo Scientific, Cat #1856209). […] MTAP for Westerns was purchased from Proteintech™ (Cat #11475-1-AP. SRM and SMS were purchased from Abcam® (Cat #ab111884 and ab156879). B-actin antibody for Westerns was purchased from Sigma-Aldrich (Cat #A5441) and GAPDH was from Santa Cruz Biotecnology Inc. (Cat #sc-25778). Films were scanned using the Biorad ChemiDoc XRS, and band intensities were calculated using Image Lab™. Intensity values were normalized to B-actin loading control band intensities and made relative to control treatment conditions.

Compound: CSC[C@H]1CN(Cc2c[nH]c3c(N)ncnc23)C[C@@H]1O [MTDIA, (3R,4S)-1-[(9-Deaza-adenin-9-yl)methyl]-3-hydroxy-4-(methylthiomethyl)-pyrrolidine]
- IC50 (PC3; PC-3, 96 h, PC3, 4 days, 0 μM MTA): > 1000 µM
- IC50 (PC3; PC-3, 96 h, PC3, 4 days, 10 μM MTA): > 1000 µM
- IC50 (PC3; PC-3, 96 h, PC3, 4 days, 20 μM MTA): 300 µM
- IC50 (PC3; PC-3, 192 h, PC3, 8 days, 0 μM MTA): > 1000 µM
- IC50 (PC3; PC-3, 192 h, PC3, 8 days, 10 μM MTA): 100 µM
- IC50 (PC3; PC-3, 192 h, PC3, 8 days, 20 μM MTA): 0.09 µM
- IC50 (PC3; PC-3, 288 h, PC3, 12 days, 0 μM MTA): > 1000 µM
- IC50 (PC3; PC-3, 288 h, PC3, 12 days, 10 μM MTA): 80 µM
- IC50 (PC3; PC-3, 288 h, PC3, 12 days, 20 μM MTA): 0.082 µM
- IC50 (PC3; PC-3, 288 h, PC3, 12 days, with 10 or 20 μM MTA): 0.01 to 0.1 µM
- effect on cell growth (PC3; PC3, 100 nM MTDIA, with 20 μM MTA): dramatic effect on cell growth
- effect on cell growth (PC3; PC3, 100 nM MTDIA, without MTA): little to no effect
- effect on growth (PC3; PC3, 100 nM MTDIA, 4 days, with or without 20 μM MTA): limited effects on growth
- blocking cell growth (PC3; PC3, 6 days, low concentrations of MTDIA): no effect at blocking cell growth
- sensitivity to MTDIA when SAT1 is overexpressed (LNG53 cells): much more sensitive
- spermine synthase expression (spermine synthase): downregulated
- IC50 (FaDu cells): ~0.05 µM
- MTAP expression (MTAP): upregulate expression of MTAP
